Patent US20240018133A1, “MODULATORS OF THE INTEGRATED STRESS PATHWAY” (Calico Life Sciences LLC, priority 2019, published 2024)
pEC50: −log10 of the molar value.

Test system: ATF4 luciferase reporter (human full-length ATF4 5'-UTR fused to firefly luciferase) in HEK293T cells
Test: ATF4-Luc assay (in vitro model of VWMD): HEK293T cells carrying ATF4 luciferase reporter, tunicamycin-treated
Assay type: cell-based
Conditions: Homo sapiens, HEK-293T, 1 μg/mL tunicamycin, 7 hours, One Glo luminescence
Method in brief: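 Reporter cells were stably generated by retroviral transduction and puromycin selection, then seeded at 30,000 cells/well. Next day, cells received 1 μg/mL tunicamycin with 200 nM test compound for 7 h, and luciferase luminescence was read with a one-step reagent. Values reported as EC50.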

SMILES	pEC50
O=C(COc1ccc(Cl)c(F)c1)NC12CC(NC(=O)c3cc(=O)c4ccc(F)cc4o3)(C1)C2 [Compound 313, N-{3-[2-(4-chloro-3-fluorophenoxy)acetamido]bicyclo[1.1.1]pentan-1-yl}-7-fluoro-4-oxo-4H-1-benzopyran-2-carboxamide]	7.30 to 8.00
CNC1CC(C(=O)NC23CC(NC(=O)COc4ccc(Cl)c(F)c4)(C2)C3)Oc2ccc(Cl)cc21 (centres unmarked) [Compound 314, 6-chloro-N-{3-[2-(4-chloro-3-fluorophenoxy)acetamido]bicyclo[1.1.1]pentan-1-yl}-4-(methylamino)-3,4-dihydro-2H-1-benzopyran-2-carboxamide]	> 8.00
O=C(COc1ccc(Cl)c(F)c1)NC12CC(NC(=O)C3=CC(O)c4cc(Cl)ccc4O3)(C1)C2 (centres unmarked) [Compound 315, 6-chloro-N-{3-[2-(4-chloro-3-fluorophenoxy)acetamido]bicyclo[1.1.1]pentan-1-yl}-4-hydroxy-4H-1-benzopyran-2-carboxamide]	> 8.00
O=C(COc1ccc(Cl)c(F)c1)NC12CC(NC(=O)[C@@H]3C[C@@H](N[C@H]4C[C@@H](O)C4)c4cc(Cl)ccc4O3)(C1)C2 [Compound 316, (2S,4R)-6-chloro-N-{3-[2-(4-chloro-3-fluorophenoxy)acetamido]bicyclo[1.1.1]pentan-1-yl}-4-{[(1s,3S)-3-hydroxycyclobutyl]amino}-3,4-dihydro-2H-1-benzopyran-2-carboxamide]	6.60 to 7.30
O=C(COc1ccc(Cl)c(F)c1)NC12CC(NC(=O)C3=Cc4ccc(Cl)cc4OC3)(C1)C2 [Compound 317, 7-chloro-N-{3-[2-(4-chloro-3-fluorophenoxy)acetamido]bicyclo[1.1.1]pentan-1-yl}-2H-1-benzopyran-3-carboxamide]	7.30 to 8.00
O=C(COc1ccc(Cl)c(F)c1)NC12CC(NC(=O)c3cc(=O)c4cc(Cl)ccc4o3)(C1)C2 [Compound 318, 6-chloro-N-{3-[2-(4-chloro-3-fluorophenoxy)acetamido]bicyclo[1.1.1]pentan-1-yl}-4-oxo-4H-1-benzopyran-2-carboxamide]	> 8.00
O=C(COc1ccc(Cl)c(F)c1)NC12CC(NC(=O)[C@@H]3C[C@H](NCC(F)(F)F)c4cc(Cl)ccc4O3)(C1)C2 [Compound 319, (2S,4S)-6-chloro-N-{3-[2-(4-chloro-3-fluorophenoxy)acetamido]bicyclo[1.1.1]pentan-1-yl}-4-[(2,2,2-trifluoroethyl)amino]-3,4-dihydro-2H-1-benzopyran-2-carboxamide]	6.60 to 7.30
C[C@@]1(C(=O)NC23CC(NC(=O)COc4ccc(Cl)c(F)c4)(C2)C3)Oc2ccc(Cl)cc2C1=O [Compound 320, (2R)-5-chloro-N-{3-[2-(4-chloro-3-fluorophenoxy)acetamido]bicyclo[1.1.1]pentan-1-yl}-2-methyl-3-oxo-2,3-dihydro-1-benzofuran-2-carboxamide]	5.70 to 6.30
O=C(COc1ccc(F)c(F)c1)NC12CC(NC(=O)[C@@H]3CC(=O)c4cc(F)c(F)cc4O3)(C1)C2 [Compound 321, (2S)—N-{3-[2-(3,4-difluorophenoxy)acetamido]bicyclo[1.1.1]pentan-1-yl}-6,7-difluoro-4-oxo-3,4-dihydro-2H-1-benzopyran-2-carboxamide]	6.60 to 7.30
COc1ccc2oc(C(=O)NC34CC(NC(=O)COc5ccc(Cl)c(F)c5)(C3)C4)cc(=O)c2n1 [Compound 322, N-{3-[2-(4-chloro-3-fluorophenoxy)acetamido]bicyclo[1.1.1]pentan-1-yl}-6-methoxy-4-oxo-4H-pyrano[3,2-b]pyridine-2-carboxamide]	6.60 to 7.30
O=C(COc1ccc(Cl)c(F)c1)NC12CC(NC(=O)[C@@H]3C[C@@H](NCC(F)(F)F)c4cc(Cl)ccc4O3)(C1)C2 [Compound 323, (2S,4R)-6-chloro-N-{3-[2-(4-chloro-3-fluorophenoxy)acetamido]bicyclo[1.1.1]pentan-1-yl}-4-[(2,2,2-trifluoroethyl)amino]-3,4-dihydro-2H-1-benzopyran-2-carboxamide]	6.60 to 7.30
CN(C(=O)c1cc(=O)c2cc(Cl)ccc2o1)C12CC(NC(=O)COc3ccc(Cl)c(F)c3)(C1)C2 [Compound 324, 6-chloro-N-{3-[2-(4-chloro-3-fluorophenoxy)acetamido]bicyclo[1.1.1]pentan-1-yl}-N-methyl-4-oxo-4H-1-benzopyran-2-carboxamide]	6.30 to 6.60
O=C(COc1ccc(Cl)c(F)c1)NC12CC(NC(=O)[C@H]3CN(CC4(O)CC4)c4cc(Cl)ccc4O3)(C1)C2 [Compound 325, (2R)-6-chloro-N-{3-[2-(4-chloro-3-fluorophenoxy)acetamido]bicyclo[1.1.1]pentan-1-yl}-4-[(1-hydroxycyclopropyl)methyl]-3,4-dihydro-2H-1,4-benzoxazine-2-carboxamide]	7.30 to 8.00
O=C(COc1ccc(Cl)c(F)c1)NC12CCC(NC(=O)C3CC(=O)c4cc(Cl)ccc4O3)(CC1)CC2 (centres unmarked) [Compound 326, 6-chloro-N-{4-[2-(4-chloro-3-fluorophenoxy)acetamido]bicyclo[2.2.2]octan-1-yl}-4-oxo-3,4-dihydro-2H-1-benzopyran-2-carboxamide]	7.30 to 8.00
O=C(COc1ccc(Cl)c(F)c1)NC12CC(NC(=O)[C@H]3C[C@H](NCC(F)(F)F)c4cc(Cl)ccc4O3)(C1)C2 [Compound 327, (2R,4S)-6-chloro-N-{3-[2-(4-chloro-3-fluorophenoxy)acetamido]bicyclo[1.1.1]pentan-1-yl}-4-[(2,2,2-trifluoroethyl)amino]-3,4-dihydro-2H-1-benzopyran-2-carboxamide]	6.60 to 7.30
O=C(COc1ccc(Cl)c(F)c1)NC12CC(NC(=O)[C@H]3C[C@@H](N[C@H]4C[C@@H](O)C4)c4cc(Cl)ccc4O3)(C1)C2 [Compound 328, (2R,4R)-6-chloro-N-{3-[2-(4-chloro-3-fluorophenoxy)acetamido]bicyclo[1.1.1]pentan-1-yl}-4-{[(1s,3S)-3-hydroxycyclobutyl]amino}-3,4-dihydro-2H-1-benzopyran-2-carboxamide]	6.60 to 7.30
O=C(COc1cnc(C(F)(F)F)nc1)NC12CC(NC(=O)[C@H]3CC(=O)c4cc(Cl)ccc4O3)(C1)C2 [Compound 329, (2R)-6-chloro-4-oxo-N-[3-(2-{[2-(trifluoromethyl)pyrimidin-5-yl]oxy}acetamido)bicyclo[1.1.1]pentan-1-yl]-3,4-dihydro-2H-1-benzopyran-2-carboxamide]	6.60 to 7.30
COC1CC(C(=O)NC23CC(NC(=O)COc4ccc(Cl)c(F)c4)(C2)C3)Oc2ccc(F)cc21 (centres unmarked) [Compound 330, N-{3-[2-(4-chloro-3-fluorophenoxy)acetamido]bicyclo[1.1.1]pentan-1-yl}-6-fluoro-4-methoxy-3,4-dihydro-2H-1-benzopyran-2-carboxamide]	6.60 to 7.30
O=C(COc1ccc(Cl)cn1)NC12CC(NC(=O)[C@H]3CC(=O)c4cc(Cl)ccc4O3)(C1)C2 [Compound 331, (2R)-6-chloro-N-(3-{2-[(5-chloropyridin-2-yl)oxy]acetamido}bicyclo[1.1.1]pentan-1-yl)-4-oxo-3,4-dihydro-2H-1-benzopyran-2-carboxamide]	6.60 to 7.30
O=C(COc1ccc(Cl)c(F)c1)NC12CC(NC(=O)C3CC(=O)c4cc(F)ccc4O3)(C1)C2 (centres unmarked) [Compound 332, N-{3-[2-(4-chloro-3-fluorophenoxy)acetamido]bicyclo[1.1.1]pentan-1-yl}-6-fluoro-4-oxo-3,4-dihydro-2H-1-benzopyran-2-carboxamide]	> 8.00
